Assay results as given in patent US10238648B2 (priority 2014, dated 2019).
Where a name gives a salt, the structure may show the parent alone. Read-outs that look alike come from different tables or passages of the source.

Assays:
[1] = cited from earlier work
[2] = oral dose x bioavailability
Source text: [formula] [formula] [formula] Dual Penetration Enhancer Formulations

[3] = Permeation of abuse-deterrent (naloxone) formulations through separating membrane and placebo opioid layer, 72 h diffusion study; format: in vitro ADME; settings: from abuse deterrent layer NLX-2014-01-011
Experimental: The ability of abuse-deterrent layer formulations to migrate into the oxymorphone layer was investigated. A placebo oxymorphone layer was prepared and two abuse-deterrent formulations (NLX-2014-01-011 and NLX-2014-01-012) were tested with different separating layers. The appearance of both formulations was uniform and aesthetically pleasing. When assembled, no distinguishable layers could be observed and the layers themselves were inseparable. Patches of size 0.95 cm^2 patches were punched out from the release liner side of the assembled roll.
Insofar as NLX-2014-01-011 is concerned, while two cells did show permeation from the abuse deterrent layer, this was probably due to the abuse deterrent layer contacting the skin, as by the end of the experiment almost no permeation was observed.

sedation in dogs = settings: 4.5 mg intravenous dose reversed by 1.2 mg intravenous naloxone; cited from earlier work

COc1ccc2c3c1O[C@H]1C(=O)CC[C@H]4[C@@H](C2)N(C)CC[C@]314 [Hydrocodone]
Bioavailability ([1]; po): 80%

COc1ccc2c3c1O[C@H]1C(=O)CC[C@@]4(O)[C@@H](C2)N(C)CC[C@]314 [Oxycodone]
Bioavailability ([1]; oral): 87%

CN1CC[C@]23c4c5ccc(O)c4O[C@H]2C(=O)CC[C@@]3(O)[C@H]1C5 [Oxymorphone]
Dose after first pass effect [2]: 4.0 mg/day

C=CCN1CC[C@]23c4c5ccc(O)c4O[C@H]2C(=O)CC[C@@]3(O)[C@H]1C5 [naloxone hydrochloride]
permeability of the antagonist in the system [3]: largely impermeable

C=CCN1CC[C@]23c4c5ccc(O)c4O[C@H]2C(=O)CC[C@@]3(O)[C@H]1C5 [naloxone]
reversal of oxymorphone sedation (sedation in dogs): reversed
